One experiment deals with T1, B1R receptor of the rat (CHO K1 cells stably transfected with the B1R gene of the rat) (Rattus norvegicus, UniProt P97583).
T1 construct: expressed in transfected cells; host or cells: CHO K1 cells (Chinese hamster ovary), stably transfected
T1 sequence (P97583 1-337): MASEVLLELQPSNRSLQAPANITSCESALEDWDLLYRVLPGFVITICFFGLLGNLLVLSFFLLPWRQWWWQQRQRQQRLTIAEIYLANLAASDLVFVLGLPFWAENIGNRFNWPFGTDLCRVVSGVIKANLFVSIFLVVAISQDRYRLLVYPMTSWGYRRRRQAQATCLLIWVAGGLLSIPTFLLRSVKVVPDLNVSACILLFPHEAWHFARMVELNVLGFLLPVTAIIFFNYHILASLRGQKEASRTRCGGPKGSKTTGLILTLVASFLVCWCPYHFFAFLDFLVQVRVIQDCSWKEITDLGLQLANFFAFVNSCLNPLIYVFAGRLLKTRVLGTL
Briefly: Functional study on the bradykinin receptor 1 (B1R), Ca2+ fluorescence (Fluo-4) FLIPR/Novostar assay, rB1R cells. In kind it is cell-based. Particulars: CHO-K1, 10 μM, library compounds CC_H, read-out: % Inhibition (r-B1R) at 10 μM. The gist of the method:
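Test compounds (10 μM) were added first and the Ca2+ rise was scored as % activation against Lys-Des-Arg9-bradykinin (≥50 nM, human) or Des-Arg9-bradykinin (≥1 μM, rat). After 6-20 min, the matching agonist was given at its EC80, and % inhibition relative to maximal achievable inhibition was calculated.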
The term inhibition denotes the drop in the measured response relative to a control, in per cent. On to `CN(C(=O)c1ccc2c(c1)C(NC(=O)c1ccccc1Cl)CC2)C1CCN(c2ncncc2F)CC1` (stereo not drawn) [CC_H-631, 3-[(2-Chloro-benzoyl)amino]-N-[1-(5-fluoro-pyrimidin-4-yl)-piperidin-4-yl]-N-methyl-2,3-dihydro-1H-indene-5-carboxylic acid amide], for which the inhibition at 10 µM turned out to be 94%.

Regarding `CN(C(=O)c1ccc2c(c1)C(NC(=O)CCC1CCCC1)CC2)C1CCN(c2ccnc(C3CC3)n2)CC1` (stereo not drawn) [CC_H-630, 3-(3-Cyclopentyl-propanoylamino)-N-[1-(2-cyclopropyl-pyrimidin-4-yl)-piperidin-4-yl]-N-methyl-2,3-dihydro-1H-indene-5-carboxylic acid amide], the inhibition at 10 µM came to 95%. Regarding `CN(C(=O)c1ccc2c(c1)C(NC(=O)c1cccnc1C(F)(F)F)CC2)C1CCN(c2ccnnc2)CC1` (stereo not drawn) [CC_H-628, N-[6-[Methyl-(1-pyridazin-4-yl-piperidin-4-yl)-carbamoyl]-2,3-dihydro-1H-inden-1-yl]-2-(trifluoromethyl)-pyridine-3-carboxylic acid amide], the inhibition at 10 µM came out at 99%. As to `CN(C(=O)c1ccc2c(c1)C(NC(=O)CCC1CCCC1)CC2)C1CCN(c2ncncc2F)CC1` (stereo not drawn) [CC_H-632, 3-(3-Cyclopentyl-propanoylamino)-N-[1-(5-fluoro-pyrimidin-4-yl)-piperidin-4-yl]-N-methyl-2,3-dihydro-1H-indene-5-carboxylic acid amide], the inhibition at 10 µM was found to be 95%.

Still in this experiment, the particulars now being: CHO-K1, 10 μM, read-out: % Inhibition (r-B1R) at 10 μM.
`CN(C(=O)c1ccc2c(c1)C(NS(=O)(=O)Cc1cccc(C(F)(F)F)c1)CC2)C1CCN(c2ccc3cnccc3c2)CC1` (stereo not drawn) [CC_H-383, N-(1-Isoquinolin-6-yl-piperidin-4-yl)-N-methyl-3-[[[3-(trifluoromethyl)phenyl]-methylsulfonyl]amino]-2,3-dihydro-1H-indene-5-carboxylic acid amide]: the inhibition at 10 µM amounted to 50%. As to `CCS(=O)(=O)NC1CCc2ccc(C(=O)N(C)C3CCN(c4cc(C)nc(C)c4)CC3)cc21` (stereo not drawn) [CC_H-321, N-[1-(2,6-Dimethyl-pyridin-4-yl)-piperidin-4-yl]-3-[(ethylsulfonyl)amino]-N-methyl-2,3-dihydro-1H-indene-5-carboxylic acid amide], the inhibition at 10 µM amounted to 65%. As for `CN(C(=O)c1ccc2c(c1)C(N(C)C(=O)Nc1cccc(Cl)c1Cl)CC2)C1CCN(c2ccncc2)CC1` (stereo not drawn) [CC_H-220, 3-[[(2,3-Dichloro-phenyl)-carbamoyl]-methyl-amino]-N-methyl-N-(1-pyridin-4-yl-piperidin-4-yl)-2,3-dihydro-1H-indene-5-carboxylic acid amide], the inhibition at 10 µM was 107%.

As for `CN(C(=O)c1ccc2c(c1)C(NC(=O)C1CC1)CC2)C1CCN(c2ccncc2)CC1` (stereo not drawn) [CC_H-205, 3-(Cyclopropanecarbonylamino)-N-methyl-N-(1-pyridin-4-yl-piperidin-4-yl)-2,3-dihydro-1H-indene-5-carboxylic acid amide], the inhibition at 10 µM stood at 98%. Regarding `Cc1cc(N2CCC(N(C)C(=O)c3ccc4c(c3)C(NS(=O)(=O)CCc3ccccc3Cl)CC4)CC2)cc(C)n1` (stereo not drawn) [CC_H-324, 3-[[2-(2-Chlorophenyl)-ethylsulfonyl]amino]-N-[1-(2,6-dimethyl-pyridin-4-yl)-piperidin-4-yl]-N-methyl-2,3-dihydro-1H-indene-5-carboxylic acid amide], the inhibition at 10 µM was found to be 108%.

Take `Cc1cc(N2CCC(N(C)C(=O)c3ccc4c(c3)C(N(C)C(=O)C3CC3)CC4)CC2)cc(C)n1` (stereo not drawn) [CC_H-331, 3-(Cyclopropanecarbonyl-methyl-amino)-N-[1-(2,6-dimethyl-pyridin-4-yl)-piperidin-4-yl]-N-methyl-2,3-dihydro-1H-indene-5-carboxylic acid amide]: the inhibition at 10 µM was determined as 104%. On the same count and under the same terms, the same measure for `Cc1cc(N2CCC(N(C)C(=O)c3ccc4c(c3)C(NC(=O)N(C)c3ccccc3Cl)CC4)CC2)cc(C)n1` (stereo not drawn) [CC_H-316, 3-[[(2-Chlorophenyl)-methyl-carbamoyl]amino]-N-[1-(2,6-dimethyl-pyridin-4-yl)-piperidin-4-yl]-N-methyl-2,3-dihydro-1H-indene-5-carboxylic acid amide]: 106%; for `Cc1cc(N2CCC(N(C)C(=O)c3ccc4c(c3)C(N(C)C(=O)Nc3ccc(Cl)cc3C(F)(F)F)CC4)CC2)cc(C)n1` (stereo not drawn) [CC_H-344, 3-[[[4-Chloro-2-(trifluoromethyl)-phenyl]-carbamoyl]-methyl-amino]-N-[1-(2,6-dimethyl-pyridin-4-yl)-piperidin-4-yl]-N-methyl-2,3-dihydro-1H-indene-5-carboxylic acid amide]: 90%. Take `CN(C(=O)c1ccc2c(c1)C(NC(=O)CCC1CCCC1)CC2)C1CCN(c2ccc3cnccc3c2)CC1` (stereo not drawn) [CC_H-381, 3-(3-Cyclopentyl-propanoylamino)-N-(1-isoquinolin-6-yl-piperidin-4-yl)-N-methyl-2,3-dihydro-1H-indene-5-carboxylic acid amide]: the inhibition at 10 µM is 109%.

As to `CN(C(=O)c1ccc2c(c1)C(NC(=O)c1cc(Cl)ccc1Cl)CC2)C1CCN(c2ccc3cnccc3c2)CC1` (stereo not drawn) [CC_H-359, 3-[(2,5-Dichloro-benzoyl)amino]-N-(1-isoquinolin-6-yl-piperidin-4-yl)-N-methyl-2,3-dihydro-1H-indene-5-carboxylic acid amide], the inhibition at 10 µM was 110%. `Cc1ccc(F)c(C(=O)NC2CC(C)(C)c3ccc(C(=O)N(C)C4CCN(c5ccncc5)CC4)cc32)c1Cl` (stereo not drawn) [CC_H-224, 3-[(2-Chloro-6-fluoro-3-methyl-benzoyl)amino]-N,1,1-trimethyl-N-(1-pyridin-4-yl-piperidin-4-yl)-2,3-dihydro-indene-5-carboxylic acid amide]: the inhibition at 10 µM turned out to be 110%. On to `CN(C(=O)c1ccc2c(c1)C(NC(=O)Nc1ccc(Cl)cc1Cl)CCO2)C1CCN(c2ccncc2)CC1` (stereo not drawn) [CC_H-286, 4-[[(2,4-Dichlorophenyl)-carbamoyl]amino]-N-methyl-N-(1-pyridin-4-yl-piperidin-4-yl)-3,4-dihydro-2H-chromene-6-carboxylic acid amide], for which the inhibition at 10 µM came out at 87%. Regarding `Cc1cc(N2CCC(N(C)C(=O)c3ccc4c(c3)C(NC(=O)c3cccc(C(F)(F)F)c3Cl)CC4)CC2)cc(C)n1` (stereo not drawn) [CC_H-303, 3-[[2-Chloro-3-(trifluoromethyl)-benzoyl]amino]-N-[1-(2,6-dimethyl-pyridin-4-yl)-piperidin-4-yl]-N-methyl-2,3-dihydro-1H-indene-5-carboxylic acid amide], the inhibition at 10 µM stood at 112%. `CN(C(=O)c1ccc2c(c1)C(NC(=O)c1cc(F)ccc1Cl)CC2)C1CCN(c2ccncc2)CC1` (stereo not drawn) [CC_H-200, 3-[(2-Chloro-5-fluoro-benzoyl)amino]-N-methyl-N-(1-pyridin-4-yl-piperidin-4-yl)-2,3-dihydro-1H-indene-5-carboxylic acid amide]: the inhibition at 10 µM was determined as 111%. In the case of `Cc1ccc(NC(=O)NC2CCCc3ccc(C(=O)N(C)C4CCN(c5ccncc5)CC4)cc32)c(C)c1` (stereo not drawn) [CC_H-266, 8-[[(2,4-Dimethyl-phenyl)-carbamoyl]amino]-N-methyl-N-(1-pyridin-4-yl-piperidin-4-yl)-5,6,7,8-tetrahydro-naphthalene-2-carboxylic acid amide], the inhibition at 10 µM came to 63%. In the case of `CN(C(=O)c1ccc2c(c1)C(NC(=O)Nc1ccccc1Cl)CCO2)C1CCN(c2ccncc2)CC1` (stereo not drawn) [CC_H-280, 4-[[(2-Chlorophenyl)-carbamoyl]amino]-N-methyl-N-(1-pyridin-4-yl-piperidin-4-yl)-3,4-dihydro-2H-chromene-6-carboxylic acid amide], the inhibition at 10 µM is 91%. On the same count and under the same terms, to `CN(C(=O)c1ccc2c(c1)C(N(C)C(=O)c1cccc(C(F)(F)F)c1Cl)CC2)C1CCN(c2ccncc2)CC1` (stereo not drawn) [CC_H-216, 3-[[2-Chloro-3-(trifluoromethyl)-benzoyl]-methyl-amino]-N-methyl-N-(1-pyridin-4-yl-piperidin-4-yl)-2,3-dihydro-1H-indene-5-carboxylic acid amide] belongs 110%. The same measure, in the same setting: to `CN(C(=O)c1ccc2c(c1)C(NS(=O)(=O)Cc1ccccc1F)CC2)C1CCN(c2ccc3cnccc3c2)CC1` (stereo not drawn) [CC_H-384, 3-[[(2-Fluorophenyl)-methylsulfonyl]amino]-N-(1-isoquinolin-6-yl-piperidin-4-yl)-N-methyl-2,3-dihydro-1H-indene-5-carboxylic acid amide] belongs 109%; to `CN(C(=O)c1ccc2c(c1)C(NC(=O)C1CC1)CCC2)C1CCN(c2ccncc2)CC1` (stereo not drawn) [CC_H-250, 8-(Cyclopropanecarbonylamino)-N-methyl-N-(1-pyridin-4-yl-piperidin-4-yl)-5,6,7,8-tetrahydro-naphthalene-2-carboxylic acid amide], 103%; to `Cc1cc(N2CCC(N(C)C(=O)c3ccc4c(c3)C(N(C)C(=O)Nc3cccc(Cl)c3Cl)CC4)CC2)cc(C)n1` (stereo not drawn) [CC_H-339, 3-[[(2,3-Dichloro-phenyl)-carbamoyl]-methyl-amino]-N-[1-(2,6-dimethyl-pyridin-4-yl)-piperidin-4-yl]-N-methyl-2,3-dihydro-1H-indene-5-carboxylic acid amide], 92%.

For the origin of these results see US8680159B2, “Bradykinin 1 receptor modulating compounds” (Gruenenthal GmbH, priority 2010, dated 2014).
